Here are results for 15 compounds from patent US12667572B2, “Tricyclic compounds useful in the treatment of cancer, autoimmune and inflammatory disorders” (SCHRÖDINGER, INC., priority 2021, dated 2026).

In experiment [1] the target is T1, full-length MALT1 protein His-MALT1(1-824) (Homo sapiens, UniProt Q9UDY8).
T1 construct: full-length MALT1 protein His-MALT1(1-824); His (N); made in house; host or cells: baculovirus-infected insect cells
T1 sequence (Q9UDY8 1-824): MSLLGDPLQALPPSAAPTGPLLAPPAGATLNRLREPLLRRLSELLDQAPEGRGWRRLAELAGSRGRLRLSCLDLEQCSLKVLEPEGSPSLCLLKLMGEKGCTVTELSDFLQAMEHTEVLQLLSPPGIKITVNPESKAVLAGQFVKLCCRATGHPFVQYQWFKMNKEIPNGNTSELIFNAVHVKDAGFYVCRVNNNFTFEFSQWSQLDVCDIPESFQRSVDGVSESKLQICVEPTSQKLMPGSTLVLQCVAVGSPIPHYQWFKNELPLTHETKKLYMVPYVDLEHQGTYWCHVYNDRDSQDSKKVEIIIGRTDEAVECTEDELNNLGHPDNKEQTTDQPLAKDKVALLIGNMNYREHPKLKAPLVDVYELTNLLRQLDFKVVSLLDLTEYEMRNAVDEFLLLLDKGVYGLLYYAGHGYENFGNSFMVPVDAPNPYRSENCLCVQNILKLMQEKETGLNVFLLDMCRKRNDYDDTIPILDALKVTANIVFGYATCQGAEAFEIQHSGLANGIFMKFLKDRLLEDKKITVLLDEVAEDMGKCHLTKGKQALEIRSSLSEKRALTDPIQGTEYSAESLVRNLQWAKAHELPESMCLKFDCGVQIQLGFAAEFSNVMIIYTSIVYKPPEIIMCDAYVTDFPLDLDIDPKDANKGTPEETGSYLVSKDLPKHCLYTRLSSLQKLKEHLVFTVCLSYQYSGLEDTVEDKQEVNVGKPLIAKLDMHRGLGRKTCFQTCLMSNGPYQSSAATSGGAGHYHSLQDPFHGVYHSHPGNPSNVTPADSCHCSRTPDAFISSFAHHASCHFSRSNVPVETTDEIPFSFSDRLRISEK
The experiment can be described thus: MALT1 protease assay, Assay 1 (2 nM MALT1, Ac-LRSR-AMC substrate). Format: biochemical. As to conditions: 2 nM MALT1, 50 μM Ac-LRSR-AMC, 2 h pre-incubation, 8 hr incubation at RT. In a few lines:
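Compounds (0.1% DMSO final) sat 2 h at RT with insect-cell-expressed His-MALT1(1-824), in 50 mM Tris pH 7.5, 600 mM sodium citrate, 1 mM DTT, 1 mM EDTA, 0.05% BSA. Cleavage of 50 μM Ac-LRSR-AMC (Km ~100 μM) ran 8 h at RT, read as AMC fluorescence. IC50 and Hill coefficient fitted to % remaining activity.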

For experiment [2], the system named is IL10 secretion in OCI-LY10 cells. The experiment can be described thus: Human IL10 secretion assay, Assay 1 (HTRF). The experiment is classed as cell-based. As to conditions: 24 h incubation, read-out: IL-10 Secretion IC50 [nM] Assay 1. The protocol: IL10 is one of the cytokines that are regulated via activation of NF-kB signaling. For example, in ABC-DLBCL cell lines, the activated NF-kB signaling leads to increased IL10 secretion. Inhibition of NF-kB signaling has been shown leading to decreased IL10 secretion.
Assay 1: OCI-LY10 cells were seeded in IMEM supplemented with 20% fetal bovine serum at 3×10^5 cells per well in 96-well round bottom plates (Corning 3799, Corning), treated with 100 nL of 3-fold serial compound dilutions, starting at 10 mM. The final vehicle concentration was 0.1% DMSO in all wells. After 24 h incubation, the cells were transferred to 96-PCR plates (Axygen: PCR-96-FLT-C) and centrifuged, then 16 μL of cell culture media was transferred to HTRF plates and IL10 levels were measured using human IL-10 Assay Kits (Cisbio) using HTRF format. The signals were transformed to percentage of remaining activity by using the high control (HC, median of signal from wells containing cells treated with DMSO) and low control (LC, median of signal from wells with no cells). IC50 values (nM) were determined using 4-parametric curve-fitting and Hill coefficient obtained using Graph Pad Prism (Graph Pad software, Inc, USA) with non-linear regression analysis.

Each structure is given as a SMILES string. A value given as a limit tells only on which side of the number the result lay.

Take `CC1(C)CCC(C(=O)Nc2cnc(-n3nccn3)c(Cl)c2)c2cnc3cc(Cl)nn3c21` (single isomer, unassigned) [Example 9, 2-chloro-N-(5-chloro-6-(2H-1,2,3-triazol-2-yl)pyridin-3-yl)-9,9-dimethyl-6,7,8,9-tetrahydropyrazolo[1,5-a]quinazoline-6-carboxamide]: the figures for the IC50 in experiment [1] and in experiment [2] were 10 to 100 nM and 100 to 1000 nM, respectively.

Turning to `CC1(C)CC(C(=O)Nc2cnc(-n3cccn3)c(Cl)c2)c2cnc3cc(Cl)nn3c21` (single isomer, unassigned) [Example 13, 2-chloro-N-(5-chloro-6-(1H-pyrazol-1-yl)pyridin-3-yl)-8,8-dimethyl-7,8-dihydro-6H-cyclopenta[e]pyrazolo[1,5-a]pyrimidine-6-carboxamide], the values for the IC50 in experiment [1] and in experiment [2] were 10 to 100 nM and 100 to 1000 nM, respectively.

In the case of `CC1(C)CC(C(=O)Nc2cnc(-n3nccn3)c(Cl)c2)c2cnc3cc(Cl)nn3c21` (single isomer, unassigned) [Example 2, 2-chloro-N-(5-chloro-6-(2H-1,2,3-triazol-2-yl)pyridin-3-yl)-8,8-dimethyl-7,8-dihydro-6H-cyclopenta[e]pyrazolo[1,5-a]pyrimidine-6-carboxamide], the IC50 is under 10 nM in experiment [1] and 100 to 1000 nM in experiment [2].

Turning to `C[C@]1(C(F)(F)F)C[C@@H](C(=O)Nc2cnc(-n3nccn3)c(Cl)c2)c2cnc3cc(Cl)nn3c21` (single isomer, unassigned) [Example 37, 2-chloro-N-(5-chloro-6-(2H-1,2,3-triazol-2-yl)pyridin-3-yl)-8-methyl-8-(trifluoromethyl)-7,8-dihydro-6H-cyclopenta[e]pyrazolo[1,5-a]pyrimidine-6-carboxamide], the values for the IC50 in experiment [1] and in experiment [2] were 10 to 100 nM and at least 1000 nM, respectively.

In the case of `CCc1cc2ncc3c(n2n1)C(C)(C)CC3C(=O)Nc1cnc(-n2nccn2)c(Cl)c1` (single isomer, unassigned) [Example 21, N-(5-chloro-6-(2H-1,2,3-triazol-2-yl)pyridin-3-yl)-2-ethyl-8,8-dimethyl-7,8-dihydro-6H-cyclopenta[e]pyrazolo[1,5-a]pyrimidine-6-carboxamide], the IC50 was 10 to 100 nM in experiment [1] and at least 1000 nM in experiment [2].

For the compound `CC1(C)CC(C(=O)Nc2cnc(-n3nccn3)c(Cl)c2)c2cnc3cc(C(F)F)nn3c21` (single isomer, unassigned) [Example 25, N-(5-chloro-6-(2H-1,2,3-triazol-2-yl)pyridin-3-yl)-2-(difluoromethyl)-8,8-dimethyl-7,8-dihydro-6H-cyclopenta[e]pyrazolo[1,5-a]pyrimidine-6-carboxamide], the values for the IC50 in experiment [1] and in experiment [2] were 10 to 100 nM and 100 to 1000 nM, respectively.

As to `C[C@]1(C(F)(F)F)C[C@H](C(=O)Nc2cnc(-n3nccn3)c(Cl)c2)c2cnc3cc(Cl)nn3c21` (single isomer, unassigned) [Example 38, 2-chloro-N-(5-chloro-6-(2H-1,2,3-triazol-2-yl)pyridin-3-yl)-8-methyl-8-(trifluoromethyl)-7,8-dihydro-6H-cyclopenta[e]pyrazolo[1,5-a]pyrimidine-6-carboxamide], the IC50 in experiment [1] was under 10 nM; in experiment [2], 100 to 1000 nM.

On to `Cn1cnc(-c2ncc(NC(=O)C3CC(C)(C)c4c3cnc3cc(Cl)nn43)cc2Cl)c1` (single isomer, unassigned) [Example 35, 2-chloro-N-(5-chloro-6-(1-methyl-1H-imidazol-4-yl)pyridin-3-yl)-8,8-dimethyl-7,8-dihydro-6H-cyclopenta[e]pyrazolo[1,5-a]pyrimidine-6-carboxamide], for which the IC50 is 10 to 100 nM in experiment [1] and at least 1000 nM in experiment [2].

Consider `Cc1cc2ncc3c(n2n1)C(C)(C)C[C@@H]3C(=O)Nc1cnc(-n2nccn2)c(Cl)c1` (single isomer, unassigned) [Example 6, N-(5-chloro-6-(2H-1,2,3-triazol-2-yl)pyridin-3-yl)-2,8,8-trimethyl-7,8-dihydro-6H-cyclopenta[e]pyrazolo[1,5-a]pyrimidine-6-carboxamide], for which the IC50 in experiment [1] was under 10 nM; in experiment [2], 100 to 1000 nM.

Turning to `CC(C)(O)c1cnn(-c2ncc(NC(=O)C3CC(C)(C)c4c3cnc3cc(Cl)nn43)cc2Cl)n1` (single isomer, unassigned) [Example 23, 2-chloro-N-(5-chloro-6-(4-(2-hydroxypropan-2-yl)-2H-1,2,3-triazol-2-yl)pyridin-3-yl)-8,8-dimethyl-7,8-dihydro-6H-cyclopenta[e]pyrazolo[1,5-a]pyrimidine-6-carboxamide], the values for the IC50 in experiment [1] and in experiment [2] were under 10 nM and 100 to 1000 nM, respectively.

For `CC1(C)CC(C(=O)Nc2cnc(-n3ncc(CO)n3)c(Cl)c2)c2cnc3cc(Cl)nn3c21` (single isomer, unassigned) [Example 31, 2-chloro-N-(5-chloro-6-(4-(hydroxymethyl)-2H-1,2,3-triazol-2-yl)pyridin-3-yl)-8,8-dimethyl-7,8-dihydro-6H-cyclopenta[e]pyrazolo[1,5-a]pyrimidine-6-carboxamide], the IC50 in experiment [1] was under 10 nM; in experiment [2], 100 to 1000 nM.

As to `CC1(C)CC(C(=O)Nc2cnc(-n3nccn3)c(Cl)c2)c2cnc3cc(C#N)nn3c21` (single isomer, unassigned) [Example 4, N-(5-chloro-6-(2H-1,2,3-triazol-2-yl)pyridin-3-yl)-2-cyano-8,8-dimethyl-7,8-dihydro-6H-cyclopenta[e]pyrazolo[1,5-a]pyrimidine-6-carboxamide], the IC50 was 10 to 100 nM in experiment [1] and 100 to 1000 nM in experiment [2].

In the case of `C[C@@]1(C(F)(F)F)C[C@H](C(=O)Nc2cnc(-n3nccn3)c(Cl)c2)c2cnc3cc(Cl)nn3c21` (single isomer, unassigned) [Example 36, 2-chloro-N-(5-chloro-6-(2H-1,2,3-triazol-2-yl)pyridin-3-yl)-8-methyl-8-(trifluoromethyl)-7,8-dihydro-6H-cyclopenta[e]pyrazolo[1,5-a]pyrimidine-6-carboxamide], the 50% inhibitory concentration (IC50) in experiment [1] is under 10 nM; in experiment [2], 100 to 1000 nM.

Turning to `Cn1ccc(-c2ncc(NC(=O)C3CC(C)(C)c4c3cnc3cc(Cl)nn43)cc2Cl)n1` (single isomer, unassigned) [Example 11, 2-chloro-N-(5-chloro-6-(1-methyl-1H-pyrazol-3-yl)pyridin-3-yl)-8,8-dimethyl-7,8-dihydro-6H-cyclopenta[e]pyrazolo[1,5-a]pyrimidine-6-carboxamide], the IC50 in experiment [1] lay within 10 to 100 nM; in experiment [2] it was 100 to 1000 nM.

With `CC1(C)C[C@H](C(=O)Nc2cnc([C@H]3CCCO3)c(Cl)c2)c2cnc3cc(Cl)nn3c21` (single isomer, unassigned) [Example 29, 2-chloro-N-(5-chloro-6-(tetrahydrofuran-2-yl)pyridin-3-yl)-8,8-dimethyl-7,8-dihydro-6H-cyclopenta[e]pyrazolo[1,5-a]pyrimidine-6-carboxamide], the IC50 is 10 to 100 nM in experiment [1] and 100 to 1000 nM in experiment [2].
